This is an account of results in US9701689B2, “Substituted pyridines and pyridazines as CCR10 receptor inhibitors” (KYOWA HAKKO KIRIN CO., LTD., priority 2012, dated 2017).

The target in this assay is T1, human CCR10 (Homo sapiens, UniProt P46092).
T1 construct: expressed in transfected cells; host or cells: KJMGER8 cells (Namalwa cell-derived line), beta-estradiol-induced; hCCR10G16 cells
T1 sequence (P46092 1-362): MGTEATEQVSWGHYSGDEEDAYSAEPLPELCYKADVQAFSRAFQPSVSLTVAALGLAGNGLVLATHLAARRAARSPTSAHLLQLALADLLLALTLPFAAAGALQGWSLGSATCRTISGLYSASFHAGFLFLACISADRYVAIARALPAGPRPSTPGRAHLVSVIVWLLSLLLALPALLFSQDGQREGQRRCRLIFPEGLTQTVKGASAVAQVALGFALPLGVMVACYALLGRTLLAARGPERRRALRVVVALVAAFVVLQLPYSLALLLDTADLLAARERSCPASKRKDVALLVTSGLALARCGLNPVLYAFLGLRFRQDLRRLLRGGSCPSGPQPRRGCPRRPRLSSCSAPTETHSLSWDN
Nature of the assay: CCR10 antagonistic effect: calcium assay of human CCR10 (CTACK-induced increase of intracellular calcium in hCCR10G16 cells). Format: cell-based. As to conditions: at a concentration of not more than 1000 nmol/L; human CCR10-expressing hCCR10G16 cells, 300 nmol/L CTACK added; read-out: inhibition of increase in the calcium ion concentration. The essentials:
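Inhibition of CTACK-evoked calcium flux (max minus min Fluo-3 fluorescence over ~5 min, FDSS) was calculated against control in β-estradiol-induced human CCR10/Gα16 KJMGER8 cells, after 30 min compound preincubation at 37 °C; CTACK added from a 300 nmol/L solution.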
On the technique in general: Calcium assays in cells follow changes in intracellular calcium, usually with a dye or a luminescent sensor.

In the case of `COc1ccc(Nc2c(C(=O)N3CCC(c4ccc(F)cc4)CC3)cnc(S(N)(=O)=O)c2Cl)c(C)c1` [Compound 178, 3-chloro-5-[4-(4-fluorophenyl)piperidine-1-carbonyl]-4-(4-methoxy-2-methylphenylamino)pyridine-2-sulfonamide], the inhibition at up to 1 µM was not below 50%.
As for `COc1ccc(Nc2c(C(=O)N3CCC(c4ccc(F)cc4)CC3)cnc(S(N)(=O)=O)c2Cl)c(Cl)c1` [Compound 179, 3-chloro-4-(2-chloro-4-methoxyphenylamino)-5-[4-(4-fluorophenyl)piperidine-1-carbonyl]pyridine-2-sulfonamide], the figure is not below 50%.
As for `Cc1c(Cl)cccc1Nc1c(C(=O)N2CCC(c3ccc(F)cc3)CC2)cnc(S(N)(=O)=O)c1Cl` [Compound 180, 3-chloro-4-(3-chloro-2-methylphenylamino)-5-[4-(4-fluorophenyl)piperidine-1-carbonyl]pyridine-2-sulfonamide], the figure is not below 50%.
For the compound `Cc1ccc(Nc2c(C(=O)N3CCC(c4ccc(F)cc4)CC3)cnc(S(N)(=O)=O)c2Cl)cc1Cl` [Compound 181, 3-chloro-4-(3-chloro-4-methylphenylamino)-5-[4-(4-fluorophenyl)piperidine-1-carbonyl]pyridine-2-sulfonamide], the inhibition at up to 1 µM is not below 50%.
With `NS(=O)(=O)c1ncc(C(=O)N2CCC(c3ccc(F)cc3)CC2)c(Nc2c(F)cccc2F)c1Cl` [Compound 182, 3-chloro-4-(2,6-difluorophenylamino)-5-[4-(4-fluorophenyl)piperidine-1-carbonyl]pyridine-2-sulfonamide] the figure was not below 50%; with `Cc1cc(F)ccc1Nc1c(C(=O)N2CCC(c3ccc(F)cc3)CC2)cnc(S(=O)(=O)N2CCC(N)CC2)c1Cl` [Compound 184, [6-(4-aminopiperidin-1-ylsulfonyl)-5-chloro-4-(4-fluoro-2-methylphenylamino)pyridin-3-yl][4-(4-fluorophenyl)piperidin-1-yl]methanone], not below 50%; with `Cc1cc(F)ccc1Nc1c(C(=O)N2CCC(c3ccc(F)cc3)CC2)cnc(S(=O)(=O)N2C(=O)OCC2(C)C)c1Cl` [Compound 187, 3-{3-chloro-4-(4-fluoro-2-methylphenylamino)-5-[4-(4-fluorophenyl)piperidine-1-carbonyl]pyridin-2-ylsulfonyl}-4,4-dimethyloxazolidin-2-one], not below 50%.
As for `Cc1cc(F)ccc1Nc1c(C(=O)N2CCC(c3ccc(F)cc3)CC2)cnc(S(=O)(=O)Nc2nccs2)c1Cl` [Compound 188, 3-chloro-4-(4-fluoro-2-methylphenylamino)-5-[4-(4-fluorophenyl)piperidine-1-carbonyl]-N-(thiazol-2-yl)pyridine-2-sulfonamide], the figure is not below 50%.
With `Cc1cc(F)ccc1Nc1c(C(=O)N2CCC(c3ccc(F)cc3)CC2)cnc(S(=O)(=O)Nc2c(C)noc2C)c1Cl` [Compound 189, 3-chloro-N-(3,5-dimethylisoxazol-4-yl)-4-(4-fluoro-2-methylphenylamino)-5-[4-(4-fluorophenyl)piperidine-1-carbonyl]pyridine-2-sulfonamide], the inhibition at up to 1 µM is not below 50%.
As for `Cc1cc(F)ccc1Nc1c(C(=O)N2CCC(c3ccc(F)cc3)CC2)cnc(S(=O)(=O)Nc2ccon2)c1Cl` [Compound 190, 3-chloro-4-(4-fluoro-2-methylphenylamino)-5-[4-(4-fluorophenyl)piperidine-1-carbonyl]-N-(isoxazol-3-yl)pyridine-2-sulfonamide], the figure is not below 50%.
As to `Cc1cc(F)ccc1Nc1c(C(=O)N2CCC(c3ccc(F)cc3)CC2)cnc(S(=O)(=O)Nc2ccccc2)c1Cl` [Compound 191, 3-chloro-4-(4-fluoro-2-methylphenylamino)-5-[4-(4-fluorophenyl)piperidine-1-carbonyl]-N-phenylpyridine-2-sulfonamide], the inhibition at up to 1 µM was not below 50%.
With `Cc1cc(F)ccc1Nc1c(C(=O)N2CCC(c3ccc(F)cc3)CC2)cnc(S(=O)(=O)n2ccc3ncccc32)c1Cl` [Compound 192, [6-(1H-pyrrolo[3,2-b]pyridin-1-ylsulfonyl)-5-chloro-4-(4-fluoro-2-methylphenylamino)pyridin-3-yl][4-(4-fluorophenyl)piperidin-1-yl]methanone] the figure was not below 50%.
As for `CONS(=O)(=O)c1ncc(C(=O)N2CCC(c3ccc(F)cc3)CC2)c(Nc2ccc(F)cc2C)c1Cl` [Compound 193, 3-chloro-4-(4-fluoro-2-methylphenylamino)-5-[4-(4-fluorophenyl)piperidine-1-carbonyl]-N-methoxypyridine-2-sulfonamide], the inhibition at up to 1 µM was not below 50%.
Take `Cc1cc(F)ccc1Nc1c(C(=O)N2CCC(c3ccc(F)cc3)CC2)cnc(S(N)(=O)=NC(=O)c2ccccc2)c1Cl` (stereo not drawn) [Compound 194, 3-chloro-4-(4-fluoro-2-methylphenylamino)-5-[4-(4-fluorophenyl)piperidine-1-carbonyl]-N′-benzoylpyridine-2-sulfonimidamide]: the inhibition at up to 1 µM is not below 50%.
For the compound `Cc1cc(F)ccc1Nc1c(C(=O)N2CCC(C#N)(c3ccccc3)CC2)cnc(S(N)(=O)=O)c1Cl` [Compound 195, 3-chloro-5-(4-cyano-4-phenylpiperidine-1-carbonyl)-4-(4-fluoro-2-methylphenylamino)pyridine-2-sulfonamide], the inhibition at up to 1 µM is not below 50%.
As for `Cc1cc(Cl)ccc1Nc1c(C(=O)N2CCC(c3ccc(F)cc3)CC2)cnc(S(N)(=O)=O)c1C` [Compound 196, 4-(4-chloro-2-methylphenylamino)-5-[4-(4-fluorophenyl)piperidine-1-carbonyl]-3-methylpyridine-2-sulfonamide], the figure is not below 50%; as for `Cc1c(S(N)(=O)=O)ncc(C(=O)N2CCC(c3ccc(F)cc3)CC2)c1Nc1cccc(Cl)c1` [Compound 197, 4-(3-chlorophenylamino)-5-[4-(4-fluorophenyl)piperidine-1-carbonyl]-3-methylpyridine-2-sulfonamide], not below 50%; as for `Cc1cccc(Nc2c(C(=O)N3CCC(O)(c4ccc(F)cc4)CC3)cnc(S(N)(=O)=O)c2Cl)c1` [Compound 199, 3-chloro-5-[4-(4-fluorophenyl)-4-hydroxypiperidine-1-carbonyl]-4-(m-tolylamino)pyridine-2-sulfonamide], not below 50%.
Turning to `Cc1cc(F)ccc1Nc1c(C(=O)N2CCC(c3ccc(F)cc3)CC2)cnc(S(=N)(N)=O)c1Cl` (stereo not drawn) [Compound 200, 3-chloro-4-(4-fluoro-2-methylphenylamino)-5-[4-(4-fluorophenyl)piperidine-1-carbonyl]pyridine-2-sulfonimidamide], the inhibition at up to 1 µM was not below 50%.
As to `COC(=O)C1(c2ccccc2)CCN(C(=O)c2cnc(S(N)(=O)=O)c(Cl)c2Nc2cccc(C)c2)CC1` [Compound 201, methyl 1-[5-chloro-6-sulfamoyl-4-(m-tolylamino)nicotinoyl]-4-phenylpiperidine-4-carboxylate], the inhibition at up to 1 µM was not below 50%.
Regarding `Cc1cccc(Nc2c(C(=O)N3CC=C(c4ccc(F)cc4)CC3)cnc(S(N)(=O)=O)c2Cl)c1` [Compound 202, 3-chloro-5-[4-(4-fluorophenyl)-1,2,3,6-tetrahydropyridine-1-carbonyl]-4-(m-tolylamino)pyridine-2-sulfonamide], the inhibition at up to 1 µM is not below 50%.
With `Cc1cccc(Nc2c(C(=O)N3CCC(C(N)=O)(c4ccccc4)CC3)cnc(S(N)(=O)=O)c2Cl)c1` [Compound 203, 1-[5-chloro-6-sulfamoyl-4-(m-tolylamino)nicotinoyl]-4-phenylpiperidine-4-carboxamide] the figure was not below 50%; with `CCS(=O)(=O)c1ncc(C(=O)N2CCC(c3ccc(F)cc3)CC2)c(Nc2ccccc2C)c1Cl` [Compound 204, [5-chloro-6-(ethylsulfonyl)-4-(o-tolylamino)pyridin-3-yl][4-(4-fluorophenyl)piperidin-1-yl]methanone], not below 50%; with `Cc1ccccc1Nc1c(C(=O)N2CCC(c3ccc(F)cc3)CC2)cnc(S(=O)(=O)c2ccccc2)c1Cl` [Compound 205, [5-chloro-6-(phenylsulfonyl)-4-(o-tolylamino)pyridin-3-yl][4-(4-fluorophenyl)piperidin-1-yl]methanone], not below 50%.
As for `Cc1cccc(Nc2c(C(=O)N3CCN(c4ccccc4Cl)CC3)cnc(S(N)(=O)=O)c2Cl)c1` [Compound 206, 3-chloro-5-[4-(2-chlorophenyl)piperazine-1-carbonyl]-4-(m-tolylamino)pyridine-2-sulfonamide], the figure is not below 50%; as for `Cc1c(S(N)(=O)=O)ncc(C(=O)N2CCC(c3ccc(F)cc3)CC2)c1NC1CCCCC1` [Compound 207, 4-(cyclohexylamino)-5-[4-(4-fluorophenyl)piperidine-1-carbonyl]-3-methylpyridine-2-sulfonamide], not below 50%.
As to `COC1(c2ccc(F)cc2)CCN(C(=O)c2cnc(S(N)(=O)=O)c(Cl)c2Nc2cccc(C)c2)CC1` [Compound 208, 3-chloro-5-[4-(4-fluorophenyl)-4-methoxypiperidine-1-carbonyl]-4-(m-tolylamino)pyridine-2-sulfonamide], the inhibition at up to 1 µM was not below 50%.
